These are literature values, as cited in patent US20140100178A1, “COMPOSITION AND METHODS FOR SITE-SPECIFIC DRUG DELIVERY TO TREAT MALARIA AND OTHER LIVER DISEASES” (priority 2012, published 2014).

The conditions of data set [1]: prophylactic doses (0.5 mg base/kg/day); children and men with normal G6PD activity; toxicity associated with >10%.
The conditions of data set [2]: in vivo.

`COc1cc(NC(C)CCCN)c2ncccc2c1` (centres unmarked) [primaquine, Primaquine]: the mean methemoglobin rates in data set [1] is 5.8%. Also, the half life in data set [2] was ~4 h.
